Patent US20210386367A1, “DEVICES AND SYSTEMS FOR GASTROINTESTINAL MICROBIOME DETECTION AND MANIPULATION” (Progenity, Inc., priority 2018, published 2021)
≈ marks a conversion by molar mass, not a printed value. Where “and” joins values, the source holds several entries; their conditions need not be identical. Equal entries are not always repeated. Entries after “also recorded” stand apart in the source; their conditions may differ. Where two headings read alike, the source gives them in different places.

Experiments:
[1] = tested on: E. coli (ATCC 25922, ATCC 35218, MMX 1312); assay: Agar dilution MIC (spontaneous mutation study; strain in conditions); format: cell-based, Escherichia coli; details: for MIC: Escherichia coli
S. pneumonia = assay: Spontaneous mutation frequency and mutation prevention concentration (MPC); format: cell-based; details: S. pneumoniae ATCC 49619
Text: (§1) As used herein, “spontaneous mutation frequency” refers to the rate at which mutations arise in a bacterium that can lead to resistance to develop to an antimicrobial agent. “Mutation prevention concentration” or “MPC” refers to the lowest concentration of antimicrobial agent above which the selective proliferation of resistant mutants is expected to occur only rarely.

S. agalactiae = assay: as above; format: cell-based; details: S. agalactiae ATCC 13813
Text: as §1

[2] = tested on: Staphylococcus aureus clinical isolates; assay: MIC distribution against clinical isolates; format: cell-based
Text: (§2) As used herein, “minimum inhibitory concentration” or “MIC” refers to the lowest concentration of an antimicrobial agent, for example, an antimicrobial agent as described herein, required to inhibit the growth of an organism.
(§3) Many susceptibility testing methods are known in the art and can be used as described herein (see, e.g., Jorgensen and Ferraro (2009) Clinical Infectious Diseases 49:1749-1755; and Maurer et al. (2017) Infectious Disease Reports 9:6839; the entire contents of each of the foregoing are incorporated herein by reference). For example, antimicrobial susceptibility can be determined using conventional culture based methods such as the broth or agar dilution test. In these dilution tests, the bacterial isolate of interest is inoculated onto different media that include serial dilutions of an antimicrobial agent, and incubated under appropriate conditions (e.g., overnight at 37° C.) to allow for growth to occur. Following the incubation period, the media is examined to determine bacterial growth. The lowest concentration of antibiotic that prevents growth represents the minimal inhibitory concentration (MIC). Broth dilution tests can be miniaturized and mechanized allowing for reproducibility and high throughput.

[3] = tested on: Enterococcus faecalis clinical isolates; assay: MIC distribution against clinical isolates; format: cell-based; details: 50 E. faecalis isolates
Text: as §2, §3

Clostridium spp. = assay: Agar dilution MIC, 10 clinical isolates; format: cell-based; details: for Mode: modal MIC
[4] = tested on: E. coli (ATCC 25922, ATCC 35218, MMX 1312); assay: Spontaneous mutation frequency assay; format: cell-based, Escherichia coli; details: for Spontaneous Mutation Frequency: selection at 4× and 8× MIC, meropenem/ceftriaxone: isolates other than MMX 1312
Method: Initial values of the MIC were determined by agar dilution in accordance with guidelines from the Clinical and Laboratory Standards Institute (CLSI; (1) “Methods for Dilution Antimicrobial Susceptibility Tests for Bacteria That Grow Aerobically; Approved Standard; 11th ed.,” CLSI standard M07, 2018; (2) “Methods for Antimicrobial Susceptibility Testing of Anaerobic Bacteria; Approved Standard—Eighth Edition,” CLSI document M11-A8, 2012.).
The agar plates were prepared by mixing a ratio of 1.0 mL of concentrated drug to 49.0 mL of the appropriate molten (47° C.) agar; the drug-supplemented agar was mixed, poured into 15-by-150 mm petri dishes and allowed to solidify and dry at room temperature prior to inoculation. […] Each plate was allowed to cool at room temperature for at least 1 hr.
The isolates were streaked onto the appropriate agar medium and incubated for 20 hr (aerobes) or 48 hr (Bacteroides under anaerobic conditions). Using a sterile swab, several well-isolated colonies were removed and resuspended in sterile saline at a heavy cell density. Each plate was inoculated with 0.5 mL of the cell suspension (each test concentration was inoculated in duplicate). The target inoculum for each spontaneous mutation plate was 10^9-10 CFU. In addition, a portion of the inoculum from each isolate was enumerated by making dilutions, spreading on agar and counting colonies.
Once the inoculum was absorbed into the agar, the plates were incubated at 35° C. Aerobes were examined at 24 and 48 hr, and resulting colonies were counted. Bacteroides were incubated anaerobically for 48-72 hr in the anaerobe chamber and colonies were counted.
Colony counts from plates used to enumerate the initial inoculum density and from the resulting spontaneous mutation frequency test plates were determined. The inoculum size was calculated as CFU inoculated per plate. The spontaneous mutation frequency was calculated using the counts from duplicate spontaneous mutation assay test plates as follows:
If there were no colonies on the antibiotic selection plates, the spontaneous mutation frequency was reported as less than the frequency observed with one colony to indicate that the spontaneous mutation frequency was less than the limit of detection (one CFU). […] The mutation prevention concentration (MPC) was reported as the lowest concentration for which no mutants were selected.

B. ovatus MMX 3503 = assay: Broth microdilution MIC (time-kill study); format: cell-based, Bacteroides ovatus
[5] = tested on: Streptococcus spp. clinical isolates; assay: MIC distribution against clinical isolates; format: cell-based; details: 54 Streptococcus spp. isolates
Text: (n=19 S. pyogenes, n=20 S. agalactiae and n=20 Viridans group Streptococcus) clinical isolates (μg/mL).
As used herein, “minimum inhibitory concentration” or “MIC” refers to the lowest concentration of an antimicrobial agent, for example, an antimicrobial agent as described herein, required to inhibit the growth of an organism. […] “MIC90” represents the MIC value at which ≥90% of the strains within a test population are inhibited; the 90th percentile.
as §3

[6] = rifaximin selection 4X MIC, 1 μg/mL
[7] = rifaximin selection 8X MIC, 2 μg/mL
[8] = MIC 32 μg/mL, 50 S. aureus isolates
[9] = 10 Clostridium spp. clinical isolates
[10] = B. ovatus MMX 3504 (so in the source)
[11] = MIC 0.06 μg/mL, 50 S. aureus isolates
[12] = MIC 0.5 μg/mL, 50 S. aureus isolates
[13] = MIC 1 μg/mL, 50 S. aureus isolates
[14] = MIC 2 μg/mL, 50 S. aureus isolates
[15] = MIC 4 μg/mL, 50 S. aureus isolates
[16] = MIC 8 μg/mL, 50 S. aureus isolates
[17] = MIC 16 μg/mL, 50 S. aureus isolates
[18] = MIC >16 μg/mL, 50 S. aureus isolates

SMILES: CO[C@H]1/C=C/O[C@@]2(C)Oc3c(C)c(O)c4c(O)c(c5c(nc6cc(C)ccn65)c4c3C2=O)NC(=O)/C(C)=C\C=C\[C@H](C)[C@H](O)[C@@H](C)[C@@H](O)[C@@H](C)[C@H](OC(C)=O)[C@@H]1C [rifaximin]
- Agar MIC ([1]; E. coli ATCC 25922): >4 µg/mL
- Agar MIC ([1]; E. coli ATCC 35218): >4 µg/mL
- Agar MIC ([1]; E. coli MMX 1312): 4 µg/mL
- MIC values (agar dilution) ([1]; over evaluated E. coli isolates (range stated jointly with other groups)): ≥ 4 µg/mL
- MFC (S. pneumonia): >0.25 µg/mL
- MFC (S. agalactiae): >2 µg/mL
- Average Count (S. agalactiae; [6]): 159 CFU
- Count 1 (S. agalactiae; [6]): 180 CFU
- Count 2 (S. agalactiae; [6]): 137 CFU
- Spontaneous Mutation Frequency (S. agalactiae; [6]): 2.77 × 10^−8
- Average Count (S. agalactiae; [7]): 115 CFU
- Count 1 (S. agalactiae; [7]): 110 CFU
- Count 2 (S. agalactiae; [7]): 120 CFU
- Spontaneous Mutation Frequency (S. agalactiae; [7]): 2.00 × 10^−8
- Cumulative percentage of isolates inhibited at MIC ([2]; MIC 0.008 μg/mL, 50 S. aureus isolates): 8.0%
- Cumulative percentage of isolates inhibited at MIC [2, 8]: 100.0%
- Number of test isolates at MIC [2, 8]: 1
- Cumulative percentage of isolates inhibited at MIC ([2]; listed as RFX): 70.0% and 78.0% and 94.0% and 98.0%
- Number of test isolates at MIC ([3]; MIC 0.5 μg/mL): 5
- MIC50 (Clostridium spp.): > 64 µg/mL
- MIC90 (Clostridium spp.): > 64 µg/mL
- MIC50 (Clostridium spp.; [9]): >64 µg/mL
- MIC90 (Clostridium spp.; [9]): >64 µg/mL
- Mode (Clostridium spp.; [9]): >64 µg/mL
- Spontaneous Mutation Frequency [4]: > 2.37×10^−8
- Spontaneous Mutation Frequency ([4]; listed as rifampin): ~10^−8
- MIC (B. ovatus MMX 3503; [10]): 2 µg/mL (≈ 2.54 µM)
- MIC (B. ovatus MMX 3503; broth microdilution): 1 µg/mL (≈ 1.27 µM)

SMILES: C[C@@H](O)[C@H]1C(=O)N2C(C(=O)O)=C(S[C@@H]3CN[C@H](C(=O)N(C)C)C3)[C@H](C)[C@H]12 [meropenem]
- Cumulative percentage of isolates inhibited at MIC ([5]; MIC 0.004 μg/mL): 29.6%
- Number of test isolates at MIC ([5]; MIC 0.004 μg/mL): 15
- Cumulative percentage of isolates inhibited at MIC ([5]; MIC 0.008 μg/mL): 40.7%
- Number of test isolates at MIC ([5]; MIC 0.008 μg/mL): 6
- Cumulative percentage of isolates inhibited at MIC ([5]; MIC 0.015 μg/mL): 57.4%
- Number of test isolates at MIC ([5]; MIC 0.015 μg/mL): 9
- Cumulative percentage of isolates inhibited at MIC ([5]; MIC 0.03 μg/mL): 92.6%
- Number of test isolates at MIC ([5]; MIC 0.03 μg/mL): 19
- Cumulative percentage of isolates inhibited at MIC ([5]; MIC 0.06 μg/mL): 94.4%
- Number of test isolates at MIC ([5]; MIC 0.06 μg/mL): 1
- Cumulative percentage of isolates inhibited at MIC ([5]; MIC 0.5 μg/mL): 100.0%
- Number of test isolates at MIC ([5]; MIC 0.5 μg/mL): 2
- Cumulative percentage of isolates inhibited at MIC ([5]; MIC […]): 96.3%
- Number of test isolates at MIC ([5]; MIC […]): 1
- Cumulative percentage of isolates inhibited at MIC ([5]; MIC ≤0.002 μg/mL): 1.9%
- Number of test isolates at MIC ([5]; MIC ≤0.002 μg/mL): 1
- MIC ([1]; read-out: Agar MIC, E. coli ATCC 25922): 0.015 µg/mL (≈ 0.0391 µM)
- MIC ([1]; read-out: Agar MIC, E. coli ATCC 35218): 0.015 µg/mL (≈ 0.0391 µM)
- MIC ([1]; read-out: Agar MIC, E. coli MMX 1312): 0.015 µg/mL (≈ 0.0391 µM)
- MIC ([1]; read-out: MIC values (agar dilution), over evaluated E. coli isolates (range stated jointly with other groups)): 0.008 to 0.12 µg/mL (≈ 0.0209 to 0.313 µM)
- MPC (S. pneumonia): 0.25 µg/mL
- Average Count (S. pneumonia; selection 8X MIC, 0.5 μg/mL): 0 CFU
- Count 1 (S. pneumonia; selection 8X MIC, 0.5 μg/mL): 0 CFU
- Count 2 (S. pneumonia; selection 8X MIC, 0.5 μg/mL): 0 CFU
- Spontaneous Mutation Frequency (S. pneumonia; selection 8X MIC, 0.5 μg/mL): ≤9.52 × 10^−10
- MPC (S. agalactiae): 0.12 µg/mL
- Cumulative percentage of isolates inhibited at MIC [2, 11]: 12.0%
- Number of test isolates at MIC [2, 11]: 6
- Cumulative percentage of isolates inhibited at MIC [2, 12]: 46.0%
- Number of test isolates at MIC [2, 12]: 1
- Cumulative percentage of isolates inhibited at MIC [2, 13]: 52.0%
- Number of test isolates at MIC [2, 13]: 3
- Cumulative percentage of isolates inhibited at MIC [2, 14]: 56.0%
- Number of test isolates at MIC [2, 14]: 2
- Cumulative percentage of isolates inhibited at MIC [2, 15]: 78.0%
- Number of test isolates at MIC [2, 15]: 11
- Cumulative percentage of isolates inhibited at MIC [2, 16]: 94.0%
- Number of test isolates at MIC [2, 16]: 8
- Cumulative percentage of isolates inhibited at MIC [2, 17]: 96.0%
- Number of test isolates at MIC [2, 17]: 1
- Cumulative percentage of isolates inhibited at MIC [2, 18]: 100.0%
- Number of test isolates at MIC [2, 18]: 2
- Cumulative percentage of isolates inhibited at MIC ([3]; MIC 0.5 μg/mL): 2.0%
- Number of test isolates at MIC ([3]; MIC 0.5 μg/mL): 1
- Cumulative percentage of isolates inhibited at MIC ([3]; MIC 1 μg/mL): 8.0%
- Number of test isolates at MIC ([3]; MIC 1 μg/mL): 3
- Cumulative percentage of isolates inhibited at MIC ([3]; MIC 2 μg/mL): 24.0%
- Number of test isolates at MIC ([3]; MIC 2 μg/mL): 8
- Cumulative percentage of isolates inhibited at MIC ([3]; MIC 4 μg/mL): 72.0%
- Number of test isolates at MIC ([3]; MIC 4 μg/mL): 24
- Cumulative percentage of isolates inhibited at MIC ([3]; MIC 8 μg/mL): 96.0%
- Number of test isolates at MIC ([3]; MIC 8 μg/mL): 12
- Cumulative percentage of isolates inhibited at MIC ([3]; MIC 16 μg/mL): 98.0%
- Number of test isolates at MIC ([3]; MIC 16 μg/mL): 1
- Cumulative percentage of isolates inhibited at MIC ([3]; MIC >16 μg/mL): 100.0%
- Number of test isolates at MIC ([3]; MIC >16 μg/mL): 1
- isolates susceptible (Clostridium spp.): One hundred
- relative activity among drugs tested (Clostridium spp.): meropenem and metronidazole had similar activity; also recorded: most active agent
- % S (Clostridium spp.; [9]): 100%
- MIC50 (Clostridium spp.; [9]): 1 µg/mL (≈ 2.61 µM)
- MIC90 (Clostridium spp.; [9]): 2 µg/mL (≈ 5.22 µM)
- MIC range (Clostridium spp.; [9]): 0.06 to 2 µg/mL
- MIC50 (Clostridium spp.; Clostridium): 1 µg/mL (≈ 2.61 µM)
- MIC90 (Clostridium spp.; Clostridium): 2 µg/mL (≈ 5.22 µM)
- Mode (Clostridium spp.; [9]): 1 µg/mL
- colonies on selection plates ([4]; E. coli MMX 1312): too numerous to count
- mutation rate ([4]; E. coli MMX 1312): indeterminate
- colonies on selection plates ([4]; E. coli MMX 1312, listed as Meropenem): only E. coli MMX 1312 demonstrated growth
- Spontaneous Mutation Frequency [4]: ≤ 7.41×10^−9
- MIC (B. ovatus MMX 3503; [10]): 0.12 µg/mL (≈ 0.313 µM)
- MIC (B. ovatus MMX 3503; Bacteroides ovatus, MMX3503, broth microdilution, read-out: MIC): 0.12 µg/mL (≈ 0.313 µM)
